{"source": "paper PMC11190158", "about": "“Study on the design, synthesis, and activity of anti-tumor staple peptides targeting MDM2/MDMX” (Frontiers in Chemistry, 2024)", "key": {"HCT116 p53^+/+": {"system": "HCT116 p53^+/+", "conditions": "72 h"}, "U87 MG": {"system": "U87 MG", "conditions": "for pIC50: 72 h; for concentration at which in vitro anti-tumor activity was exhibited: U87 MG tumor cells, CCK-8"}, "tumor cells": {"system": "tumor cells", "experiment": "Cytotoxicity / cell viability assay (CCK-8), cell line not given", "assay_type": "cell-based, human", "conditions": "for concentration at which in vitro anti-tumor activity was exhibited: compared to linear peptide M3-1, cell line not named", "description": "Human colon cancer cell lines HCT116 p53^+/+, HCT116 p53^−/−, U87 MG, and U251 were maintained in McCoy’s 5A Medium supplemented with 10% heat-inactivated FCS and 1% penicillin–streptomycin at 37°C, 5% CO2, and under complete humidification conditions. The cells (3×10^3 cells/well) were inoculated in 96-well plates and treated with different concentrations of polypeptides for 72 h. The absorbance at 450 nm was then measured using the CCK-8 Kit, and the percentage of cell survival was calculated based on the ratio of the sample well to the reference well A450."}, "HCT116 p53^−/−": {"system": "HCT116 p53^−/−", "conditions": "72 h"}, "[1]": {"experiment": "Circular dichroism, degree of helicity", "assay_type": "physicochemical", "conditions": "CD, PB pH 7.2, 10–50 mmol/L peptide, ambient temperature, 1-mm path length, 185–255 nm", "description": "The staple peptides were soluble in PB with a pH of 7.2 at a concentration of 10–50 mmol/L. CD experiments were performed using a Jasco J-715 Spectropolarimeter at ambient temperature. A quartz cuvette with a 1-mm path length was used for the spectrum collection (wavelength, 185–255 nm; step resolution, 0.0001 mm; speed, 1.2 μm/h; accumulations, 6; and bandwidth, 0.0001 mm). We calculated the helicity of each peptide using Eq."}, "U251": {"system": "U251", "conditions": "for pIC50: 72 h; for concentration at which in vitro anti-tumor activity was exhibited: U251 tumor cells, CCK-8"}, "circular dichroism": {"experiment": "circular dichroism", "conditions": "phosphate buffer (PB); pH 7.2; ns °C; 10-50 (printed mmol/L, probably uM)"}}, "note": "pIC50: −log10 of the molar value. Positions of bridges follow the written chain, without caps; N, C: chain ends. Non-standard residues stand in square brackets, D forms with d. Residues, ends and D or L forms follow the SMILES beside them. R8 = C=CCCCCCC[C@@](C)(N)C(=O)O; S5 = C=CCCC[C@](C)(N)C(=O)O"}
{"compound": "CSCC[C@H](NC(=O)[C@H](CC(C)C)NC(=O)[C@H](CCC(N)=O)NC(=O)[C@H](C)NC(=O)[C@H](Cc1c[nH]c2ccccc12)NC(=O)[C@H](Cc1ccc(O)cc1)NC(=O)[C@]1(C)CCCC=CCCC[C@](C)(NC(=O)[C@H](CCCCN)NC(C)=O)C(=O)N[C@@H]([C@@H](C)O)C(=O)N[C@@H](Cc2ccccc2)C(=O)N[C@@H](CC(C)C)C(=O)N1)C(=O)N[C@@H](CCC(N)=O)C(=O)N[C@@H](CCCCN)C(N)=O", "note": "[SM3-1] (Ac-K[S5]TFL[S5]YWAQLMQK-NH2; staple 2-6)", "values": [{"measurement": "pIC50", "setting": "HCT116 p53^+/+", "value": 3.93}, {"measurement": "pIC50", "setting": "U87 MG", "value": 4.72}, {"measurement": "concentration at which in vitro anti-tumor activity was exhibited", "setting": "U87 MG", "value": 25, "unit": "µM"}, {"measurement": "concentration at which in vitro anti-tumor activity was exhibited", "setting": "tumor cells", "value": 25, "unit": "µM"}, {"measurement": "pIC50", "setting": "HCT116 p53^−/−", "value": 4.26}, {"measurement": "helicity", "setting": "[1]", "value": 42.36, "unit": "%"}, {"measurement": "pIC50", "setting": "U251", "value": 4.65}, {"measurement": "concentration at which in vitro anti-tumor activity was exhibited", "setting": "U251", "value": 50, "unit": "µM"}, {"measurement": "helicity", "setting": "circular dichroism", "value": 42.4, "unit": "%"}]}
{"compound": "CSCC[C@H](NC(=O)[C@H](CC(C)C)NC(=O)[C@H](CCC(N)=O)NC(=O)[C@H](C)NC(=O)[C@H](Cc1c[nH]c2ccccc12)NC(=O)[C@]1(C)CCCC=CCCC[C@](C)(NC(=O)[C@H](CC(C)C)NC(=O)[C@H](CCCCN)NC(C)=O)C(=O)N[C@@H](Cc2ccccc2)C(=O)N[C@@H](CC(C)C)C(=O)N[C@@H](CCC(=O)O)C(=O)N1)C(=O)N[C@@H](CCC(N)=O)C(=O)N[C@@H](CCCCN)C(N)=O", "note": "[SM3-2] (Ac-KL[S5]FLE[S5]WAQLMQK-NH2; staple 3-7)", "values": [{"measurement": "pIC50", "setting": "HCT116 p53^+/+", "value": 4.46}, {"measurement": "pIC50", "setting": "U87 MG", "value": 4.51}, {"measurement": "concentration at which in vitro anti-tumor activity was exhibited", "setting": "U87 MG", "value": 25, "unit": "µM"}, {"measurement": "anti-proliferative / tumor suppressive activity (in words)", "setting": "tumor cells; HCT116 p53^+/+, HCT116 p53−/−, U87 and U251 cell viability experiments, versus template straight-chain peptide", "value": "significantly improved"}, {"measurement": "concentration at which in vitro anti-tumor activity was exhibited", "setting": "tumor cells", "value": 25, "unit": "µM"}, {"measurement": "pIC50", "setting": "HCT116 p53^−/−", "value": 4.62}, {"measurement": "helicity", "setting": "[1]", "value": 5.85, "unit": "%"}, {"measurement": "pIC50", "setting": "U251", "value": 4.31}, {"measurement": "concentration at which in vitro anti-tumor activity was exhibited", "setting": "U251", "value": 50, "unit": "µM"}, {"measurement": "helicity", "setting": "circular dichroism", "value": 5.85, "unit": "%"}]}
{"compound": "CSCC[C@H](NC(=O)[C@H](CC(C)C)NC(=O)[C@H](CCC(N)=O)NC(=O)[C@]1(C)CCCC=CCCC[C@](C)(NC(=O)[C@H](Cc2ccccc2)NC(=O)[C@@H](NC(=O)[C@H](CC(C)C)NC(=O)[C@H](CCCCN)NC(C)=O)[C@@H](C)O)C(=O)N[C@@H](CCC(=O)O)C(=O)N[C@@H](Cc2ccc(O)cc2)C(=O)N[C@@H](Cc2c[nH]c3ccccc23)C(=O)N1)C(=O)N[C@@H](CCC(N)=O)C(=O)N[C@@H](CCCCN)C(N)=O", "note": "[SM3-3] (Ac-KLTF[S5]EYW[S5]QLMQK-NH2; staple 5-9)", "values": [{"measurement": "pIC50", "setting": "HCT116 p53^+/+", "value": 4.81}, {"measurement": "pIC50", "setting": "U87 MG", "value": 4.32}, {"measurement": "concentration at which in vitro anti-tumor activity was exhibited", "setting": "U87 MG", "value": 50, "unit": "µM"}, {"measurement": "concentration at which in vitro anti-tumor activity was exhibited", "setting": "tumor cells", "value": 25, "unit": "µM"}, {"measurement": "pIC50", "setting": "HCT116 p53^−/−", "value": 4.59}, {"measurement": "helicity", "setting": "[1]", "value": 38.10, "unit": "%"}, {"measurement": "pIC50", "setting": "U251", "value": 4.03}, {"measurement": "concentration at which in vitro anti-tumor activity was exhibited", "setting": "U251", "value": 100, "unit": "µM"}, {"measurement": "helicity", "setting": "circular dichroism", "value": 38.1, "unit": "%"}]}
{"compound": "CC(=O)N[C@@H](CCCCN)C(=O)N[C@@H](CC(C)C)C(=O)N[C@H](C(=O)N[C@@H](Cc1ccccc1)C(=O)N[C@]1(C)CCCCCCC=CCCC[C@@](C)(C(=O)N[C@@H](CCC(N)=O)C(=O)N[C@@H](CCCCN)C(N)=O)NC(=O)[C@H](CC(C)C)NC(=O)[C@H](CCC(N)=O)NC(=O)[C@H](C)NC(=O)[C@H](Cc2c[nH]c3ccccc23)NC(=O)[C@H](Cc2ccc(O)cc2)NC(=O)[C@H](CCC(=O)O)NC1=O)[C@@H](C)O", "note": "[SM3-8] (Ac-KLTF[R8]EYWAQL[S5]QK-NH2; staple 5-12)", "values": [{"measurement": "pIC50", "setting": "HCT116 p53^+/+", "value": 4.76}, {"measurement": "pIC50", "setting": "U87 MG", "value": 4.35}, {"measurement": "concentration at which in vitro anti-tumor activity was exhibited", "setting": "U87 MG", "value": 50, "unit": "µM"}, {"measurement": "concentration at which in vitro anti-tumor activity was exhibited", "setting": "tumor cells", "value": 25, "unit": "µM"}, {"measurement": "pIC50", "setting": "HCT116 p53^−/−", "value": 4.75}, {"measurement": "helicity", "setting": "[1]", "value": 52.02, "unit": "%"}, {"measurement": "pIC50", "setting": "U251", "value": 4.03}, {"measurement": "concentration at which in vitro anti-tumor activity was exhibited", "setting": "U251", "value": 100, "unit": "µM"}]}
{"compound": "Ac-KLTFLEYWAQLMQK-NH2", "values": [{"measurement": "helicity", "setting": "circular dichroism", "value": 0.54, "unit": "%"}]}
